The structures appear in SMILES notation. Peptide text beside a SMILES is read from it. * marks the point of attachment. tBu = CC(C)(C)*

The subject of one assay is panel of tasters. The experiment in a line: Sensory evaluation of sweetness: taste panel matches aqueous solutions of the compound to sucrose standard solutions (sucrose equivalency). As to conditions: 0.05% concentration of compound. The assay is classed as in vivo. The source says:
A taste procedure for determination of sweetness merely involves the determination of sucrose equivalency. Sucrose equivalence for sweeteners are readily determined. The amount of a sweetener that is equivalent to a given weight percent sucrose can be determined by having a panel of tasters taste solutions of a sweetener at known concentrations and match its sweetness to standard solutions of sucrose. The following sensory evaluations were obtained by a panel of experts using known weight percent aqueous solutions of the above compound matched to sucrose standard solutions as previously described.

The conditions of assay [1]: as reported in the literature; cited from earlier work.

Turning to `COC(=O)[C@H](COC(C)(C)C)NC(=O)[C@@H](N)CC(=O)O` [t-butyl, L-aspartyl-O-t-butyl-L-serine methyl ester, reference compound] (H-Asp-Ser(tBu)-OMe), the “Sweetness ratio (Compound:Sucrose)” value in the assay with panel of tasters was determined as 120. The “Sucrose Equivalent” value with panel of tasters (aqueous solution) is listed as 6%. In addition, the “Sucrose Equivalent (Table 2, sweetness values of alkyl ethers)” value in assay [1] is 140.

Turning to `CCC(C)(C)OC[C@H](NC(=O)[C@@H](N)CC(=O)O)C(=O)OC` [tert. C5 H11, L-aspartyl-O-t-amyl-L-serine methyl ester], the “Sucrose Equivalent (Table 2, sweetness values of alkyl ethers)” value in assay [1] is 230.

These data come from US4622417A, “L-aminodicarboxylic-(O-cycloalkyl)-L-aminocarboxylate alkyl ester sweeteners” (General Foods Corporation, priority 1984, dated 1986).
